One series deals with HepG2 cells. Description: Hypoxic selective cytotoxicity test with respect to HepG2 cells (colony forming ratio). It is filed as cell-based, human. Particulars: 20 μM exposed for six hours, cultivated for seven days; for Activity (Surviving fraction) (%) hypoxia: hypoxic state (hypoxia); for Activity (Surviving fraction) (%) noroxia: usual oxygen state (noroxia). Here is the method:
(Hypoxic Selective Cytotoxicity Test with Respect to HepG2 Cells)
A cytotoxicity reinforcing effect on a hypoxic condition was tested using HepG2 cells which were human liver cancer cells. In a usual oxygen state (noroxia) and a hypoxic state (hypoxia), 20 μM of each quinoxaline 1,4-dioxide derivative shown in Table 1 (Compounds 1 to 8 including R1 to R6 shown in Table 1 in the above general formula (3)) was exposed for six hours, and cultivated for seven days, and then colony forming ratios were compared. It is to be noted that in Table 1, “Ph-NO2” is a group in which a nitro group is introduced into a para position of a benzoyl group.

`Cc1c(C(=O)c2ccc([N+](=O)[O-])cc2)[n+]([O-])c2cc(Cl)c(Cl)cc2[n+]1[O-]` [Compound 7, 6,7-dichloro-3-methyl-2-(4′-nitrobenzoyl)-quinoxaline 1,4-dioxide] had a melting point of 215 to 217 °C. For the same compound, in the series on HepG2 cells, the “Activity (Surviving fraction) (%) hypoxia” value was determined as 6% and the “Activity (Surviving fraction) (%) noroxia” value was determined as 73%.
Taken in the same sequence, the figures for `Cc1c(C(=O)c2ccc([N+](=O)[O-])cc2)[n+]([O-])c2cc(F)c(F)cc2[n+]1[O-]` [Compound 8, 6,7-difluoro-3-methyl-2-(41-nitrobenzoyl)-quinoxaline 1,4-dioxide] were 232 to 233 °C, 1% and 44%.
For the compound `O=C(c1ccccc1)c1c(-c2ccccc2)[n+]([O-])c2cc(F)c(F)cc2[n+]1[O-]` [Example 2, 2-benzoyl-6,7-difluoro-3-phenylquinoxaline 1,4-dioxide], the melting point fell in the range of 249 to 251 °C.
The same measure, in the same setting: in the case of `COc1cc2c(cc1OC)[n+]([O-])c(-c1ccccc1)c(C(=O)c1ccccc1)[n+]2[O-]` [Example 3, 2-benzoyl-6,7-dimethoxy-3-phenylquinoxaline 1,4-dioxide] it was 286 °C (dec.).
The same measure, in the same setting: the same measure for `COc1cc2c(cc1OC)[n+]([O-])c(C(C)=O)c(C)[n+]2[O-]` [Example 5, 2-acetyl-6,7-dimethoxy-3-methylquinoxaline 1,4-dioxide]: 254 °C.

For the origin of these results see patent US7968713B2, “Method of synthesizing quinoxaline derivative by microwave irradiation” (Nihon University, priority 2005, dated 2011).
